≈ marks a conversion by molar mass, not a printed value.
What was measured:
[1] = 1-Octanol/water partition coefficient, log P of compound at 2 mg after 24 hrs by spectrophotometry based shake flask method; type: physicochemical
[2] = Antioxidant activity assessed as DPPH free radical scavenging activity at 5 ug/ml after 30 mins by spectrophotometric analysis; type: functional
[3] = Antioxidant activity assessed as DPPH free radical scavenging activity at 25 ug/ml after 30 mins by spectrophotometric analysis; type: functional
[4] = Antioxidant activity assessed as DPPH free radical scavenging activity at 50 ug/ml after 30 mins by spectrophotometric analysis; type: functional
[5] = Antioxidant activity assessed as DPPH free radical scavenging activity at 100 ug/ml after 30 mins by spectrophotometric analysis; type: functional
[6] = Antioxidant activity assessed as DPPH free radical scavenging activity at 150 ug/ml after 30 mins by spectrophotometric analysis; type: functional
[7] = Antioxidant activity assessed as DPPH free radical scavenging activity at 200 ug/ml after 30 mins by spectrophotometric analysis; type: functional
[8] = Antioxidant activity assessed as DPPH free radical scavenging activity after 30 mins by spectrophotometric analysis; type: functional
[9] = species on record: Rattus norvegicus; test: Reduction in intraocular pressure in Wistar rat model of dexamethasone-induced elevated IOP assessed as change in intraocular pressure at 1 % w/v after 0.5 hrs by tonometry (reference value: 0%); type: functional; design: scale not given: the % may be the effect or the level left
[10] = species on record: Rattus norvegicus; test: Reduction in intraocular pressure in Wistar rat model of dexamethasone-induced elevated IOP assessed as change in intraocular pressure at 1 % w/v after 1 hr by tonometry (reference value: 0%); type: functional; design: scale not given: the % may be the effect or the level left
[11] = species on record: Rattus norvegicus; test: Reduction in intraocular pressure in Wistar rat model of dexamethasone-induced elevated IOP assessed as change in intraocular pressure at 1 % w/v after 1.5 hrs by tonometry (reference value: 0%); type: functional; design: scale not given: the % may be the effect or the level left
[12] = species on record: Rattus norvegicus; test: Reduction in intraocular pressure in Wistar rat model of dexamethasone-induced elevated IOP assessed as change in intraocular pressure at 1 % w/v after 2 hrs by tonometry (reference value: 0%); type: functional; design: scale not given: the % may be the effect or the level left
[13] = species on record: Rattus norvegicus; test: Reduction in intraocular pressure in Wistar rat model of dexamethasone-induced elevated IOP assessed as change in intraocular pressure at 1 % w/v after 2.5 hrs by tonometry (reference value: 0%); type: functional; design: scale not given: the % may be the effect or the level left
[14] = species on record: Rattus norvegicus; test: Reduction in intraocular pressure in Wistar rat model of dexamethasone-induced elevated IOP assessed as change in intraocular pressure at 1 % w/v after 3 hrs by tonometry (reference value: 0%); type: functional; design: scale not given: the % may be the effect or the level left
[15] = species on record: Rattus norvegicus; test: Reduction in intraocular pressure in Wistar rat model of dexamethasone-induced elevated IOP assessed as change in intraocular pressure at 1 % w/v after 4 hrs by tonometry (reference value: 0%); type: functional; design: scale not given: the % may be the effect or the level left
[16] = species on record: Rattus norvegicus; test: Reduction in intraocular pressure in Wistar rat model of dexamethasone-induced elevated IOP assessed as change in intraocular pressure at 1 % w/v after 5 hrs by tonometry (reference value: 0%); type: functional; design: scale not given: the % may be the effect or the level left
[17] = species on record: Rattus norvegicus; test: Reduction in intraocular pressure in Wistar rat model of dexamethasone-induced elevated IOP assessed as change in intraocular pressure at 1 % w/v after 6 hrs by tonometry (reference value: 0%); type: functional; design: scale not given: the % may be the effect or the level left
[18] = species on record: Rattus norvegicus; test: Reduction in intraocular pressure in Wistar rat model of dexamethasone-induced elevated IOP assessed as change in intraocular pressure in contralateral eye at 1 % w/v after 0.5 hrs by tonometry (reference value: 0%); type: ADME, organism-based; design: scale not given: the % may be the effect or the level left; settings: in vivo, topical_or_ocular
[19] = species on record: Rattus norvegicus; test: Reduction in intraocular pressure in Wistar rat model of dexamethasone-induced elevated IOP assessed as change in intraocular pressure in contralateral eye at 1 % w/v after 1 hr by tonometry (reference value: 0%); type: ADME, organism-based; design: scale not given: the % may be the effect or the level left; settings: in vivo, topical_or_ocular
[20] = species on record: Rattus norvegicus; test: Reduction in intraocular pressure in Wistar rat model of dexamethasone-induced elevated IOP assessed as change in intraocular pressure in contralateral eye at 1 % w/v after 1.5 hrs by tonometry (reference value: 0%); type: ADME, organism-based; design: scale not given: the % may be the effect or the level left; settings: in vivo
[21] = species on record: Rattus norvegicus; test: Reduction in intraocular pressure in Wistar rat model of dexamethasone-induced elevated IOP assessed as change in intraocular pressure in contralateral eye at 1 % w/v after 2 hrs by tonometry (reference value: 0%); type: ADME, organism-based; design: scale not given: the % may be the effect or the level left; settings: in vivo
[22] = species on record: Rattus norvegicus; test: Reduction in intraocular pressure in Wistar rat model of dexamethasone-induced elevated IOP assessed as change in intraocular pressure in contralateral eye at 1 % w/v after 2.5 hrs by tonometry (reference value: 0%); type: ADME, organism-based; design: scale not given: the % may be the effect or the level left; settings: in vivo
[23] = species on record: Rattus norvegicus; test: Reduction in intraocular pressure in Wistar rat model of dexamethasone-induced elevated IOP assessed as change in intraocular pressure in contralateral eye at 1 % w/v after 3 hrs by tonometry (reference value: 0%); type: ADME, organism-based; design: scale not given: the % may be the effect or the level left; settings: in vivo
[24] = species on record: Rattus norvegicus; test: Reduction in intraocular pressure in Wistar rat model of dexamethasone-induced elevated IOP assessed as change in intraocular pressure in contralateral eye at 1 % w/v after 4 hrs by tonometry (reference value: 0%); type: ADME, organism-based; design: scale not given: the % may be the effect or the level left; settings: in vivo
[25] = species on record: Rattus norvegicus; test: Reduction in intraocular pressure in Wistar rat model of dexamethasone-induced elevated IOP assessed as change in intraocular pressure in contralateral eye at 1 % w/v after 5 hrs by tonometry (reference value: 0%); type: ADME, organism-based; design: scale not given: the % may be the effect or the level left; settings: in vivo
[26] = species on record: Rattus norvegicus; test: Reduction in intraocular pressure in Wistar rat model of dexamethasone-induced elevated IOP assessed as change in intraocular pressure in contralateral eye at 1 % w/v after 6 hrs by tonometry (reference value: 0%); type: ADME, organism-based; design: scale not given: the % may be the effect or the level left; settings: in vivo
[27] = species on record: Rattus norvegicus; test: Reduction in intraocular pressure in Wistar rat model of dexamethasone-induced elevated IOP assessed as onset time for reduction in intraocular pressure at 1 % w/v by tonometry; type: functional
[28] = species on record: Rattus norvegicus; test: Reduction in intraocular pressure in Wistar rat model of dexamethasone-induced elevated IOP assessed as peak effect time for reduction in intraocular pressure at 1 % w/v by tonometry; type: functional, organism-based
[29] = species on record: Rattus norvegicus; test: Reduction in intraocular pressure in Wistar rat model of dexamethasone-induced elevated IOP assessed as reduction in intraocular pressure at peak effect time at 1 % w/v by tonometry; type: functional; design: scale not given: the % may be the effect or the level left

COc1ccccc1N1CCN(CC(=O)Nc2nc3ccccc3[nH]2)CC1
logP at 24 h [1]: 0.97
Activity [2]: 10.8%
Activity [3]: 21.3%
Activity [4]: 35.7%
Activity [5]: 43.2%
Activity [6]: 55.2%
Activity [7]: 64.5%
IC50 [8]: 132.65 µg/mL (≈ 363 µM)
Activity [9]: 4.2%
Activity [10]: 5.37%
Activity [11]: 9.48%
Activity [12]: 16.5%
Activity [13]: 11.02%
Activity [14]: 7.35%
Activity [15]: 4.53%
Activity [16]: 1.73%
Activity [17]: 0.9%
Activity [18]: 1.27%
Activity [19]: 2.1%
Activity [20]: 4.1%
Activity [21]: 4.77%
Activity [22]: 2.5%
Activity [23]: 1.7%
Activity [24]: 0%
Activity [25]: 0%
Activity [26]: 0%
Time [27]: 0.5 h
Tmax [28]: 2.5 h
Activity [29]: 49.92%

O=C(CN1CCN(c2ncccn2)CC1)Nc1nc2ccccc2[nH]1
logP at 24 h [1]: 1.85
Activity [2]: 8.77%
Activity [3]: 20.4%
Activity [4]: 31%
Activity [5]: 46.5%
Activity [6]: 68.4%
Activity [7]: 81.8%
IC50 [8]: 107.77 µg/mL (≈ 319 µM)
Activity [9]: 3.5%
Activity [10]: 7.42%
Activity [11]: 10.92%
Activity [12]: 15.45%
Activity [13]: 11.77%
Activity [14]: 9.1%
Activity [15]: 5.62%
Activity [16]: 3.15%
Activity [17]: 0.35%
Activity [18]: 0.95%
Activity [19]: 1.85%
Activity [20]: 2.05%
Activity [21]: 3.97%
Activity [22]: 2.1%
Activity [23]: 0.42%
Activity [24]: 0%
Activity [25]: 0%
Activity [26]: 0%
Time [27]: 0.5 h
Tmax [28]: 2 h
Activity [29]: 50%

O=C(CN1CCN(c2ccccc2F)CC1)Nc1nc2ccccc2[nH]1
logP at 24 h [1]: 0.94
Activity [2]: 11.6%
Activity [3]: 18.8%
Activity [4]: 37.4%
Activity [5]: 47.7%
Activity [6]: 56.6%
Activity [7]: 70.6%
IC50 [8]: 121.33 µg/mL (≈ 343 µM)
Activity [9]: 2.82%
Activity [10]: 6.5%
Activity [11]: 9.77%
Activity [12]: 12.47%
Activity [13]: 13.5%
Activity [14]: 11.7%
Activity [15]: 7.52%
Activity [16]: 0.95%
Activity [17]: 0.17%
Activity [18]: 0.9%
Activity [19]: 2.02%
Activity [20]: 3.2%
Activity [21]: 4.07%
Activity [22]: 1.27%
Activity [23]: 0.87%
Activity [24]: 0%
Activity [25]: 0%
Activity [26]: 0%
Time [27]: 0.5 h
Tmax [28]: 2.5 h
Activity [29]: 46.61%

CCN1CCN(CC(=O)Nc2nc3ccccc3[nH]2)CC1
logP at 24 h [1]: 1.09
Activity [2]: 13.3%
Activity [3]: 26.6%
Activity [4]: 35.7%
Activity [5]: 45.7%
Activity [6]: 57.5%
Activity [7]: 65.8%
IC50 [8]: 124.91 µg/mL (≈ 435 µM)
Activity [9]: 4.12%
Activity [10]: 6.23%
Activity [11]: 9.55%
Activity [12]: 10.6%
Activity [13]: 12.25%
Activity [14]: 8.93%
Activity [15]: 5.65%
Activity [16]: 0.53%
Activity [17]: 0.45%
Activity [18]: 1.4%
Activity [19]: 2.37%
Activity [20]: 3.73%
Activity [21]: 5.22%
Activity [22]: 4.8%
Activity [23]: 2.62%
Activity [24]: 0%
Activity [25]: 0%
Activity [26]: 0%
Time [27]: 0.5 h
Tmax [28]: 2.5 h
Activity [29]: 45.02%

From ChEMBL document CHEMBL4177608, “Design and synthesis of benzimidazole-based Rho kinase inhibitors for the treatment of glaucoma” (Bioorg Med Chem, 2017)
